9 compounds from patent US20230038373A1, “STABILE CONJUGATE” (Glykos Biomedical OY, priority 2019, published 2023) can be followed below.

“And” between values parts separate entries of the source, which are not always exact repeats. Identical values can stand only once.

Data set [1] can be described thus: Stability of kifunensine ester compounds in mouse serum (MALDI-TOF MS). The class given is in vitro ADME. As to conditions: 4 days' incubation in mouse serum at +37° C. As to the method: (§1) Serum was obtained from laboratory mice according to ethical permission, or from healthy human volunteers, and prepared with standard procedures. Buffer stability test were performed either in phosphate-buffered saline (PBS, Gibco) or standard cell culture medium recommended for SK-BR-3 cells by the ATCC (about neutral pH). Payload-linker molecules were incubated in serum, buffer or medium, after which the incubation mixture was analyzed by MALDI-TOF MS as described above. […] Similar studies were also conducted with the 33DFTG-ester compounds, further verifying the observation of stabilization by carboxylic acid modifications of the ester against esterase hydrolysis. However, all the kifunensine ester compounds, when applied in 10 μM concentration to SK-BR-3 cell culture for three days, were active in mannosidase I inhibition (as shown by MALDI-TOF MS analysis of neutral N-glycans of the SK-BR-3 cells after the incubation as described below), showing that regardless of the relative protection from serum esterase hydrolysis, the esters could still be hydrolysed in cells to liberate the active payload.

A short description of data set [2]: Stability of kifunensine ester compounds in buffered cell culture medium (MALDI-TOF MS). It counts as physicochemical. The following applies: 5 days' incubation in buffered cell culture medium at +37° C.; signal vs hydrolysis product kifunensine. As to the method:
as §1

The test system of data set [3] is immature dendritic cells (iDCs) with SK-BR-3 cells. Description: Dendritic cell activation assay (iDC / SK-BR-3 co-culture, fractalkine secretion). The class given is cell-based, human. As to conditions: 5 nM test compound. The source says:
Monocytes were isolated from human peripheral blood (buffy coat) from healthy adult donors (Finnish Red Cross Blood Service) by using magnetic-activated microbead based cell sorting for CD14 positive cells (Miltenyi Biotec). Monocytes were differentiated to immature dendritic cells (iDCs) by using Mo-DC Differentiation Medium (Miltenyi Biotec) according the manufacturer's instructions. On day 6, to analyze cell surface expression of maturation markers, the iDCs were labeled with specific monoclonal antibodies for CD209 (R&D Systems) and CD14 (eBioscience). Nonspecific antibody binding was assessed using appropriate isotype controls. The iDCs were used for co-culture experiment on day 7.
SK-BR-3 cells (ATCC) were cultured in DMEM (Gibco) containing GlutaMAX and supplemented with 10% heat-inactivated fetal bovine serum (FBS, Gibco). SK-BR-3 cells were plated in 96-well plate (5000 c/well) in the presence or absence of […] kifunensine (Carbosynth Limited) and cultured for 5 days. Before start of the co-culture, SK-BR-3 cells were washed twice with RPMI 1640 medium (Gibco). Differentiated iDCs were collected and 0.11×10^6 cells/well were added together with the test compounds to SK-BR-3 cells and cells were incubated for 24 h at +37° C. in 5% CO2. The experiment medium was RPMI 1640 medium (Gibco) containing 10 mM Hepes and 2 mM glutamine and supplemented with 10% FBS (Gibco). All treatments were performed as duplicates. […] Phorbol 12-myristate 13-acetate (PMA, Abcam) was used as positive control. After 24 h co-culture of iDCs and SKBR-3 cells, the cell supernatants were collected and centrifuged (3000 g, 5 min, +4° C.) to remove cells and debris. The supernatants were frozen and subjected to cytokine and chemokine analysis with Human Cytokine 48-Plex Discovery Assay (EVE Technologies, Canada).

Data set [4] concerns mannosidase I. The experiment in a line: N-glycan profiling of SK-BR-3 cells after inhibitor/ADC treatment (mannosidase I inhibition). The class given is cell-based. As to conditions: 10 μM, 3 days.
Protocol: SK-BR-3 breast cancer cells (ATCC) were cultured in recommended conditions and incubated with glycosylation inhibitors and ADCs for three days. The cells were then subjected to N-glycan profiling with MALDI-TOF MS essentially as described in Leijon et al. 2017, J Clin Endocrinol Metab 102(11):3990-4000, although without the deparaffinization step.
For data set [5], the system named is processing α-mannosidase. Description: N-glycan profile of JIMT-1 cancer cells after kifunensine or ADC. It counts as cell-based. The following applies: JIMT-1 cells, 3-4 days. As to the method:
(§2) JIMT-1 cancer cells (DSMZ-German Collection of Microorganisms and Cell Cultures; variable/medium HER2 expression) and HCC-1954 cancer cells (ATCC; high HER2 expression) were cultured according to the manufacturers' instructions in standard cell culture conditions and incubated for 3-4 days with either […] kifunensine or trastuzumab-kifunensine ADCs. Effect on N-glycan profiles of the cells was analyzed by isolating cellular N-glycans and MALDI-TOF MS as described above.

The test system of data set [6] is processing α-mannosidase. Description: N-glycan profile of HCC-1954 cancer cells after kifunensine or ADC. The class given is cell-based. The following applies: HCC-1954 cells, 3-4 days; 10 pM kifunensine; 10 nM or 100 nM ADC. As to the method:
as §2

Data set [7] concerns B16-F10 melanoma subcutaneous tumor. The experiment in a line: Syngeneic B16-F10 melanoma subcutaneous tumor model. The class given is in vivo, C57BL/6J mice. As to conditions: day 15; three 10 mg/kg doses on days 2, 7 and 12 (i.v.; anti-PD-1 i.p.); control group 1534 mm^3. As to the method:
Treatment groups (n=7) were administered with three 10 mg/kg intravenous infusions of antibody or ADC to the tail vein in PBS on days 2, 7 and 12 after subcutaneous inoculation of 0.5 million B16-F10 cells in each mouse. Anti-PD-1 antibody (n=7) was administered by intraperitoneal injection. Control mice (n=5) received no injections. Plotting of the average tumor size was stopped when first mouse in the group was killed due to tumor growth.
Tumor growth was followed by palpation. After caliper measurement, tumor volume was calculated according to 0.5×length×width^2. The first dosings were administered 2 days after inoculation and subsequent doses at 5 days' intervals. Mice were randomly divided into study groups.
The B16-F10 tumor-bearing mice (strain C57BL/6J) were administered as described above with three 10 mg/kg i.v. (intravenous infusion to the tail vein in PBS) doses each of avelumab, avelumab-cyclo-MeMe-kifunensine (DAR=21-28) and avelumab-AANA-kifunensine (DAR=8) as well as with three 10 mg/kg i.p. (intraperitoneal injection in PBS) doses of anti-mouse-PD-1 antibody (InvivoMAb, clone RMP1-14, rat IgG2a kappa). Control mice received no injections. All study groups included 7 tumor-bearing mice while the control group included 5 tumor-bearing mice.

The test system of data set [8] is HCC-1954 xenograft tumors. The experiment in a line: HCC-1954 xenograft: N-glycan profiling of tumors and tissues after ADC dosing. The class given is in vivo, mice (Balb/cAnNRj-Foxn1nu-nu). The following applies: three 10 mg/kg i.v. doses, tumors collected on day 8. As to the method:
The study was performed at the TCDM/Central Animal Laboratory, University of Turku, Finland, according to the appropriate ethical committee approval. Cells for inoculation to mice were prepared in vigorous exponential growth phase. 5 million cells in 50% Matrigel were inoculated s.c. to the flank of each mouse. Clinical signs and general behavior of the animals was observed regularly. […] Tumor growth was followed by palpation. After caliper measurement, tumor volume was calculated according to 0.5×length×width^2. The first dosings were administered when average tumor volume reached […]. Mice were evenly divided into study groups so that each group received similar distribution of different-sized tumors and the average tumor volumes were similar in each group. The mice received two additional dosings at 3 days and 6 days after the first dosing. Control mice received no dosings. At the end of the study on day 8 after the first dosing, the mice were sacrificed and representative samples of the tumors, blood (serum), liver, spleen, skin and muscle were taken and frozen for analyses.
Test substances were prepared as described above. […] The samples were subjected to N-glycan profiling with MALDI-TOF MS essentially as described above.

Data set [9] concerns mannosidase I. The experiment in a line: ADC activity in SK-BR-3 cells after incubation of the ADC in human and mouse sera. The class given is cell-based. As to conditions: 7 days' incubation in both human and mouse sera, then 10 nM in SK-BR-3 culture for three days.
The mark [10] stands for this setting: SK-BR-3 + iDCs 24 h co-culture, SK-BR-3 pretreated with 10 pM kifunensine for 5 days.

On to `CC(C)(C)C(=O)OC[C@@H]1[C@@H](O)[C@H](O)[C@H](O)[C@H]2NC(=O)C(=O)N12` [6-(2,2-dimethyl)propanoyl-kifunensine, 9-(2,2-dimethylpropionyl)-kifunensine ester], for which the “compound detected after incubation in mouse serum (ester hydrolysis)” value in data set [1] is reported as “still present”. For the same compound, the “stability against chemical hydrolysis in neutral pH” value in [2] is “reasonably stable”.
Taken in the same sequence, the figures for `CC[C@H](C)C(=O)OC[C@@H]1[C@@H](O)[C@H](O)[C@H](O)[C@H]2NC(=O)C(=O)N12` [6-(2-methyl)butanoyl-kifunensine, 9-(2-methylbutanoyl)-kifunensine ester] were “not detected on day 4” and “reasonably stable”.
Taken in the same sequence, the figures for `CCCC(=O)OC[C@@H]1[C@@H](O)[C@H](O)[C@H](O)[C@H]2NC(=O)C(=O)N12` [6-butanoyl-kifunensine, 9-butanoyl-kifunensine ester] were “not detected on day 4” and “reasonably stable”.
Taken in the same sequence, the figures for `O=C(O)CCC(=O)OC[C@@H]1[C@@H](O)[C@H](O)[C@H](O)[C@H]2NC(=O)C(=O)N12` [6-succinyl-kifunensine, 9-succinyl-kifunensine] were “still present” and “reasonably stable”.
Regarding `CCCCCCCCCCCCCC(=O)O[C@@H]1[C@@H](C)[C@@]2(O)[C@@H](C=C(CO)C[C@]3(O)C(=O)C(C)=C[C@@H]23)[C@@H]2C(C)(C)[C@]12OC(C)=O` [PMA, Phorbol 12-myristate 13-acetate], the Fractalkine was 158.90 pg/mL in [3] (setting [10]); 45.18 pg/mL in data set [3] (SK-BR-3 + iDCs 24 h co-culture, without kifunensine pretreatment); 8.27 pg/mL in data set [3] (iDCs without SK-BR-3 cells).
Regarding `O=C1N[C@@H]2[C@@H](O)[C@@H](O)[C@H](O)[C@@H](CO)N2C1=O` [kifunensine], the “average number of mannose residues (Man) in the Man5-9GlcNAc2 glycan signal series” value in data set [4] is listed as “over 8.5”. The “N-glycan profile change (Man9 increase, complex-type decrease) relative to HCC-1954 cells” value in [5] was “less intensive”. Also, the Fractalkine in [3] (setting [10]) was 121 pg/mL and 120.94 pg/mL. Further, in data set [6], the “relative proportion of complex-type N-glycans” value is recorded as “drastically diminished”.
Compound “avelumab: recombinant fully human IgG1 anti-PD-L1 antibody (Bavencio)” returned an average tumor volume in data set [7] of 472 mm^3.
Regarding “trastuzumab-[DBCO-PEG4-(octakis-amino)-γ-cyclodextrin-(9-(di-3-thio-propanoyl)-kifunensine)7]4 [trastuzumab-cyclo-kifunensine]”, in data set [8], the “average mannose residues (Man) in the Man5-9GlcNAc2 glycan signal series of tumors” value is 7.36, the “proportion of complex-type N-glycans in the tumors” value was found to be 11% and the “proportion of high-mannose type N-glycans of the total neutral N-glycans in the tumors” value is reported as 78%. Also, the “reduction of activity after serum incubation” value in [9] is “over 50%”.
For “trastuzumab-[GalNAz-DBCO-PEG4-(octakis-amino)-γ-cyclodextrin-(9-(4-methyl-4-thio-butanoyl-3-thiopropanoyl)-kifunensine)7]4 [trastuzumab-cyclo-Me-kifunensine]”, in [8], the “average mannose residues (Man) in the Man5-9GlcNAc2 glycan signal series of tumors” value turned out to be 7.40, the “proportion of complex-type N-glycans in the tumors” value was 10% and the “proportion of high-mannose type N-glycans of the total neutral N-glycans in the tumors” value came to 80%. The “N-glycan profile change (Man9 increase, complex-type decrease) relative to HCC-1954 cells” value in data set [5] is recorded as “less intensive”. Besides, the “relative proportion of complex-type N-glycans” value in [6] is listed as “drastically diminished”.
